Measurements published in patent US20250228239A1, “MOLECULES HAVING PESTICIDAL UTILITY, AND INTERMEDIATES, COMPOSITIONS, AND PROCESSES, RELATED THERETO” (priority 2024, published 2025).

Columns and labels:
Assay type in all cases: in vivo
[1] = tested on: Beet Armyworm (Spodoptera exigua, LAPHEG); experiment: Bioassays on Beet Armyworm (BAW), 128-well diet tray assay; details: Spodoptera exigua; Beet Armyworm; rating class; read-out: BAW
Outline: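 Larvae at second instar are exposed on dried, compound-treated diet (50 μg/cm^2, delivered in 90:10 acetone-water) in eight replicate wells. After five to seven days at 25° C., 14:10 light-dark, percent mortality in each well is scored and the eight wells averaged.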

[2] = tested on: Cabbage Looper (Trichoplusia ni, TRIPNI); experiment: Bioassays on Cabbage Looper (CL), 128-well diet tray assay; details: Trichoplusia ni; Cabbage Looper; rating class; read-out: CL
Outline: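 Test molecule was dissolved in 90:10 acetone-water, applied to artificial diet at 50 μg/cm^2 and allowed to dry. Second-instar larvae were then added, one to five per well, and trays held at 25° C for five to seven days before mortality was scored and averaged.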

[3] = tested on: Yellow Fever Mosquito (Aedes aegypti, AEDSAE); details: Yellow Fever Mosquito; rating class
Outline: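 Larvae ~1 day old, in liver powder/water; compound from 4000 ppm DMSO stock diluted with water/acetone (90:10); 6 reps; lidded, RT, 3 d; mortality scored per well, rated.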

SMILES: CC(=O)Nc1c(F)ccc(NC(=O)c2cc(NC(=O)[C@H]3[C@H](c4cc(Cl)c(Cl)c(Cl)c4)C3(Cl)Cl)ccc2F)c1F [F1528, N-(3-Acetamido-2,4-difluorophenyl)-5-((1R,3R)-2,2-dichloro-3-(3,4,5-trichlorophenyl)cyclopropane-1-carboxamido)-2-fluorobenzamide]
- pest or weed control at 50 µg/cm2 [1]: 50 to 100%
- pest or weed control at 50 µg/cm2 [2]: 50 to 100%
- YFM [3]: B (More than 0 – Less than 80)

SMILES: O=C(Nc1cc(NC(=O)C(F)(F)F)c(F)cc1F)c1cc(NC(=O)[C@H]2[C@H](c3cc(Cl)c(Cl)c(Cl)c3)C2(Cl)Cl)ccc1F [F1551, 5-((1R,3R)-2,2-Dichloro-3-(3,4,5-trichlorophenyl)cyclopropane-1-carboxamido)-N-(2,4-difluoro-5-(2,2,2-trifluoroacetamido)phenyl)-2-fluorobenzamide]
- pest or weed control at 50 µg/cm2 [1]: 50 to 100%
- pest or weed control at 50 µg/cm2 [2]: 50 to 100%
- YFM [3]: A (80–100)

SMILES: O=C(Nc1cc(NC(=O)C(F)F)c(F)cc1F)c1cc(NC(=O)[C@H]2[C@H](c3cc(Cl)c(Cl)c(Cl)c3)C2(Cl)Cl)ccc1F [F1552, 5-((1R,3R)-2,2-Dichloro-3-(3,4,5-trichlorophenyl)cyclopropane-1-carboxamido)-N-(5-(2,2-difluoroacetamido)-2,4-difluorophenyl)-2-fluorobenzamide]
- pest or weed control at 50 µg/cm2 [1]: 50 to 100%
- pest or weed control at 50 µg/cm2 [2]: 50 to 100%
- YFM [3]: A (80–100)

SMILES: CC(=O)Nc1cc(NC(=O)c2cc(NC(=O)[C@H]3[C@H](c4cc(Cl)c(Cl)c(Cl)c4)C3(Cl)Cl)ccc2F)c(F)cc1F [F1553, N-(5-Acetamido-2,4-difluorophenyl)-5-((1R,3R)-2,2-dichloro-3-(3,4,5-trichlorophenyl)cyclopropane-1-carboxamido)-2-fluorobenzamide]
- pest or weed control at 50 µg/cm2 [1]: 50 to 100%
- pest or weed control at 50 µg/cm2 [2]: 50 to 100%
- YFM [3]: A (80–100)

SMILES: O=C(Nc1c(F)ccc(NC(=O)C(F)(F)F)c1F)c1cc(NC(=O)[C@H]2[C@H](c3cc(Cl)c(Cl)c(Cl)c3)C2(Cl)Cl)ccc1F [F1554, 5-((1R,3R)-2,2-Dichloro-3-(3,4,5-trichlorophenyl)cyclopropane-1-carboxamido)-N-(2,6-difluoro-3-(2,2,2-trifluoroacetamido)phenyl)-2-fluorobenzamide]
- pest or weed control at 50 µg/cm2 [1]: 50 to 100%
- pest or weed control at 50 µg/cm2 [2]: 50 to 100%
- YFM [3]: A (80–100)

SMILES: O=C(Nc1c(F)ccc(NC(=O)C(F)F)c1F)c1cc(NC(=O)[C@H]2[C@H](c3cc(Cl)c(Cl)c(Cl)c3)C2(Cl)Cl)ccc1F [F1555, 5-((1R,3R)-2,2-Dichloro-3-(3,4,5-trichlorophenyl)cyclopropane-1-carboxamido)-N-(3-(2,2-difluoroacetamido)-2,6-difluorophenyl)-2-fluorobenzamide]
- pest or weed control at 50 µg/cm2 [1]: 50 to 100%
- pest or weed control at 50 µg/cm2 [2]: 50 to 100%
- YFM [3]: A (80–100)

SMILES: CC(=O)Nc1ccc(F)c(NC(=O)c2cc(NC(=O)[C@H]3[C@H](c4cc(Cl)c(Cl)c(Cl)c4)C3(Cl)Cl)ccc2F)c1F [F1556, N-(3-Acetamido-2,6-difluorophenyl)-5-((1R,3R)-2,2-dichloro-3-(3,4,5-trichlorophenyl)cyclopropane-1-carboxamido)-2-fluorobenzamide]
- pest or weed control at 50 µg/cm2 [1]: 50 to 100%
- pest or weed control at 50 µg/cm2 [2]: 50 to 100%
- YFM [3]: A (80–100)

SMILES: O=C(Nc1cc(NC(=O)C(F)(F)F)c(F)cc1F)c1cc(NC(=O)[C@H]2[C@H](c3ccc(F)c(C(F)(F)F)c3)C2(Cl)Cl)ccc1F [F1557, 5-((1R,3R)-2,2-Dichloro-3-(4-fluoro-3-(trifluoromethyl)phenyl)cyclopropane-1-carboxamido)-N-(2,4-difluoro-5-(2,2,2-trifluoroacetamido)phenyl)-2-fluorobenzamide]
- pest or weed control at 50 µg/cm2 [1]: 50 to 100%
- pest or weed control at 50 µg/cm2 [2]: 50 to 100%
- YFM [3]: A (80–100)

SMILES: O=C(Nc1cc(NC(=O)C(F)F)c(F)cc1F)c1cc(NC(=O)[C@H]2[C@H](c3ccc(F)c(C(F)(F)F)c3)C2(Cl)Cl)ccc1F [F1558, 5-((1R,3R)-2,2-Dichloro-3-(4-fluoro-3-(trifluoromethyl)phenyl)cyclopropane-1-carboxamido)-N-(5-(2,2-difluoroacetamido)-2,4-difluorophenyl)-2-fluorobenzamide]
- pest or weed control at 50 µg/cm2 [1]: 50 to 100%
- pest or weed control at 50 µg/cm2 [2]: 50 to 100%
- YFM [3]: A (80–100)

SMILES: CC(=O)Nc1cc(NC(=O)c2cc(NC(=O)[C@H]3[C@H](c4ccc(F)c(C(F)(F)F)c4)C3(Cl)Cl)ccc2F)c(F)cc1F [F1559, N-(5-Acetamido-2,4-difluorophenyl)-5-((1R,3R)-2,2-dichloro-3-(4-fluoro-3-(trifluoromethyl)phenyl)cyclopropane-1-carboxamido)-2-fluorobenzamide]
- pest or weed control at 50 µg/cm2 [1]: 50 to 100%
- pest or weed control at 50 µg/cm2 [2]: 50 to 100%
- YFM [3]: A (80–100)

SMILES: O=C(Nc1c(F)ccc(NC(=O)C(F)(F)F)c1F)c1cc(NC(=O)[C@H]2[C@H](c3ccc(F)c(C(F)(F)F)c3)C2(Cl)Cl)ccc1F [F1560, 5-((1R,3R)-2,2-Dichloro-3-(4-fluoro-3-(trifluoromethyl)phenyl)cyclopropane-1-carboxamido)-N-(2,6-difluoro-3-(2,2,2-trifluoroacetamido)phenyl)-2-fluorobenzamide]
- pest or weed control at 50 µg/cm2 [1]: 50 to 100%
- pest or weed control at 50 µg/cm2 [2]: 50 to 100%
- YFM [3]: A (80–100)

SMILES: O=C(Nc1c(F)ccc(NC(=O)C(F)F)c1F)c1cc(NC(=O)[C@H]2[C@H](c3ccc(F)c(C(F)(F)F)c3)C2(Cl)Cl)ccc1F [F1561, 5-((1R,3R)-2,2-Dichloro-3-(4-fluoro-3-(trifluoromethyl)phenyl)cyclopropane-1-carboxamido)-N-(3-(2,2-difluoroacetamido)-2,6-difluorophenyl)-2-fluorobenzamide]
- pest or weed control at 50 µg/cm2 [1]: 50 to 100%
- pest or weed control at 50 µg/cm2 [2]: 50 to 100%
- YFM [3]: A (80–100)

SMILES: CC(=O)Nc1ccc(F)c(NC(=O)c2cc(NC(=O)[C@H]3[C@H](c4ccc(F)c(C(F)(F)F)c4)C3(Cl)Cl)ccc2F)c1F [F1562, N-(3-Acetamido-2,6-difluorophenyl)-5-((1R,3R)-2,2-dichloro-3-(4-fluoro-3-(trifluoromethyl)phenyl)cyclopropane-1-carboxamido)-2-fluorobenzamide]
- pest or weed control at 50 µg/cm2 [1]: 50 to 100%
- pest or weed control at 50 µg/cm2 [2]: 50 to 100%
- YFM [3]: A (80–100)

SMILES: CCOC(C)(C)C(=O)Nc1c(F)ccc(NC(=O)c2cc(NC(=O)[C@H]3[C@H](c4ccc(F)c(C(F)(F)F)c4)C3(Cl)Cl)ccc2Cl)c1F [F1603, 2-Chloro-5-((1R,3R)-2,2-dichloro-3-(4-fluoro-3-(trifluoromethyl)phenyl)cyclopropane-1-carboxamido)-N-(3-(2-ethoxy-2-methylpropanamido)-2,4-difluorophenyl)benzamide]
- pest or weed control at 50 µg/cm2 [1]: 50 to 100%
- pest or weed control at 50 µg/cm2 [2]: 50 to 100%
- YFM [3]: A (80–100)

SMILES: CCOC(C)C(=O)Nc1c(F)ccc(NC(=O)c2cc(NC(=O)[C@H]3[C@H](c4ccc(Cl)c(Cl)c4)C3(Cl)Cl)ccc2Cl)c1F (stereo partly drawn) [F1604, 2-Chloro-5-((1R,3R)-2,2-dichloro-3-(3,4-dichlorophenyl)cyclopropane-1-carboxamido)-N-(3-(2-ethoxypropanamido)-2,4-difluorophenyl)benzamide]
- pest or weed control at 50 µg/cm2 [1]: 50 to 100%
- pest or weed control at 50 µg/cm2 [2]: 50 to 100%
- YFM [3]: A (80–100)

SMILES: CCOC(C)(C)C(=O)Nc1c(F)ccc(NC(=O)c2cc(NC(=O)[C@H]3[C@H](c4ccc(Cl)c(Cl)c4)C3(Cl)Cl)ccc2Cl)c1F [F1605, 2-Chloro-5-((1R,3R)-2,2-dichloro-3-(3,4-dichlorophenyl)cyclopropane-1-carboxamido)-N-(3-(2-ethoxy-2-methylpropanamido)-2,4-difluorophenyl)benzamide]
- pest or weed control at 50 µg/cm2 [1]: 50 to 100%
- pest or weed control at 50 µg/cm2 [2]: 50 to 100%
- YFM [3]: A (80–100)

SMILES: CC(C)C(=O)Nc1c(F)ccc(NC(=O)c2cc(NC(=O)[C@H]3[C@H](c4ccc(Cl)c(Cl)c4)C3(Cl)Cl)ccc2Cl)c1F [F1606, 2-Chloro-5-((1R,3R)-2,2-dichloro-3-(3,4-dichlorophenyl)cyclopropane-1-carboxamido)-N-(2,4-difluoro-3-isobutyramidophenyl)benzamide]
- pest or weed control at 50 µg/cm2 [1]: 50 to 100%
- pest or weed control at 50 µg/cm2 [2]: 50 to 100%
- YFM [3]: A (80–100)

SMILES: O=C(Nc1ccc(F)c(NC(=O)C(C(F)(F)F)C(F)(F)F)c1F)c1cc(NC(=O)[C@H]2[C@H](c3ccc(Cl)c(Cl)c3)C2(Cl)Cl)ccc1Cl [F1607, 2-Chloro-5-((1R,3R)-2,2-dichloro-3-(3,4-dichlorophenyl)cyclopropane-1-carboxamido)-N-(2,4-difluoro-3-(3,3,3-trifluoro-2-(trifluoromethyl)propanamido)phenyl)benzamide]
- pest or weed control at 50 µg/cm2 [1]: 50 to 100%
- pest or weed control at 50 µg/cm2 [2]: 50 to 100%
- YFM [3]: A (80–100)

SMILES: O=C(Nc1ccc(F)c(NC(=O)C2CC2(F)F)c1F)c1cc(NC(=O)[C@H]2[C@H](c3ccc(Cl)c(Cl)c3)C2(Cl)Cl)ccc1Cl (stereo partly drawn) [F1608, 2-Chloro-5-((1R,3R)-2,2-dichloro-3-(3,4-dichlorophenyl)cyclopropane-1-carboxamido)-N-(3-(2,2-difluorocyclopropane-1-carboxamido)-2,4-difluorophenyl)benzamide]
- pest or weed control at 50 µg/cm2 [1]: 50 to 100%
- pest or weed control at 50 µg/cm2 [2]: 50 to 100%
- YFM [3]: A (80–100)

SMILES: O=C(Nc1ccc(F)c(NC(=O)C2CCOC2)c1F)c1cc(NC(=O)[C@H]2[C@H](c3ccc(Cl)c(Cl)c3)C2(Cl)Cl)ccc1Cl (stereo partly drawn) [F1610, N-(3-(2-Chloro-5-((1R,3R)-2,2-dichloro-3-(3,4-dichlorophenyl)cyclopropane-1-carboxamido)benzamido)-2,6-difluorophenyl)tetrahydrofuran-3-carboxamide]
- pest or weed control at 50 µg/cm2 [1]: 50 to 100%
- pest or weed control at 50 µg/cm2 [2]: 50 to 100%
- YFM [3]: A (80–100)
